Assay results published in PubChem BioAssay (NCI).
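Grown in 96-well plates, cells were treated for 48 hours with each compound at five concentrations. Insufficient inhibition: endpoint recorded as highest concentration tested. Abbreviation: GI50, concentration required for 50% inhibition of growth. The concentration for full growth arrest is given as TGI.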

Assays:
Assay in all cases: NCI tumour cell line growth inhibition, 48 h
786-0 renal = test system: 786-0 renal
A498 renal = test system: A498 renal
A549 NSCLC = test system: A549 NSCLC
ACHN renal = test system: ACHN renal
BT-549 breast = test system: BT-549 breast
CAKI-1 renal = test system: CAKI-1 renal
COLO 205 colon = test system: COLO 205 colon
DU-145 prostate = test system: DU-145 prostate
EKVX NSCLC = test system: EKVX NSCLC
HCC-2998 colon = test system: HCC-2998 colon
HCT-15 colon = test system: HCT-15 colon
HL-60(TB) leukemia = test system: HL-60(TB) leukemia
HOP-62 NSCLC = test system: HOP-62 NSCLC
HOP-92 NSCLC = test system: HOP-92 NSCLC
HS 578T breast = test system: HS 578T breast
HT29 colon = test system: HT29 colon
IGROV1 ovarian = test system: IGROV1 ovarian
K-562 leukemia = test system: K-562 leukemia
KM12 colon = test system: KM12 colon
LOX IMVI melanoma = test system: LOX IMVI melanoma
M14 melanoma = test system: M14 melanoma
MALME-3M melanoma = test system: MALME-3M melanoma
MCF7 breast = test system: MCF7 breast
MDA-MB-231 breast = test system: MDA-MB-231 breast
MDA-MB-435 = test system: MDA-MB-435
MOLT-4 leukemia = test system: MOLT-4 leukemia
NCI-H226 lung = test system: NCI-H226 lung
NCI-H460 lung = test system: NCI-H460 lung
NCI-H522 lung = test system: NCI-H522 lung
NCI/ADR-RES ovarian = test system: NCI/ADR-RES ovarian
OVCAR-3 ovarian = test system: OVCAR-3 ovarian
OVCAR-4 ovarian = test system: OVCAR-4 ovarian
OVCAR-5 ovarian = test system: OVCAR-5 ovarian
OVCAR-8 ovarian = test system: OVCAR-8 ovarian
PC-3 prostate = test system: PC-3 prostate
RPMI-8226 leukemia = test system: RPMI-8226 leukemia
RXF 393 renal = test system: RXF 393 renal
SF-268 CNS = test system: SF-268 CNS
SF-295 CNS = test system: SF-295 CNS
SF-539 CNS = test system: SF-539 CNS
SK-MEL-2 melanoma = test system: SK-MEL-2 melanoma
SK-MEL-28 melanoma = test system: SK-MEL-28 melanoma
SK-MEL-5 melanoma = test system: SK-MEL-5 melanoma
SK-OV-3 ovarian = test system: SK-OV-3 ovarian
SN12C renal = test system: SN12C renal
SNB-19 CNS = test system: SNB-19 CNS
SNB-75 CNS = test system: SNB-75 CNS
SR leukemia = test system: SR leukemia
SW-620 colon = test system: SW-620 colon
T-47D breast = test system: T-47D breast
TK-10 renal = test system: TK-10 renal
U251 CNS = test system: U251 CNS
UACC-257 melanoma = test system: UACC-257 melanoma
UACC-62 melanoma = test system: UACC-62 melanoma
UO-31 renal = test system: UO-31 renal

## Cc1ncn(-c2ccc(/C=N/Nc3ccnc4cc(Cl)ccc34)cc2)c1C
786-0 renal
  GI50: 1610 nM
  TGI: 3250 nM
A498 renal
  GI50: 6490 nM
  TGI: 20200 nM
A549 NSCLC
  GI50: 1700 nM
  TGI: 3160 nM
ACHN renal
  GI50: 1790 nM
  TGI: 3180 nM
BT-549 breast
  GI50: 1830 nM
  TGI: 3440 nM
CAKI-1 renal
  GI50: 1630 nM
  TGI: 2990 nM
COLO 205 colon
  GI50: 1740 nM
  TGI: 3280 nM
DU-145 prostate
  GI50: 1880 nM
  TGI: 3700 nM
EKVX NSCLC
  GI50: 3450 nM
  TGI: 18000 nM
HCC-2998 colon
  GI50: 1920 nM
  TGI: 3520 nM
HCT-15 colon
  GI50: 1800 nM
  TGI: 3730 nM
HL-60(TB) leukemia
  GI50: 1560 nM
  TGI: 3770 nM
HOP-62 NSCLC
  GI50: 1740 nM
  TGI: 3200 nM
HOP-92 NSCLC
  GI50: 1590 nM
  TGI: 3210 nM
HS 578T breast
  GI50: 2010 nM
  TGI: 4480 nM
HT29 colon
  GI50: 1690 nM
  TGI: 3330 nM
IGROV1 ovarian
  GI50: 1970 nM
  TGI: 3820 nM
K-562 leukemia
  GI50: 2070 nM
  TGI: 8070 nM
KM12 colon
  GI50: 2380 nM
  TGI: 5790 nM
LOX IMVI melanoma
  GI50: 2190 nM
  TGI: 3980 nM
M14 melanoma
  GI50: 1810 nM
  TGI: 3480 nM
MALME-3M melanoma
  GI50: 1930 nM
  TGI: 3610 nM
MCF7 breast
  GI50: 1540 nM
  TGI: 3410 nM
MDA-MB-231 breast
  GI50: 2080 nM
  TGI: 3840 nM
MDA-MB-435
  GI50: 1650 nM
  TGI: 3050 nM
MOLT-4 leukemia
  GI50: 1940 nM
  TGI: 5120 nM
NCI-H226 lung
  GI50: 2420 nM
  TGI: 6870 nM
NCI-H460 lung
  GI50: 1780 nM
  TGI: 3570 nM
NCI-H522 lung
  GI50: 1800 nM
  TGI: 3390 nM
NCI/ADR-RES ovarian
  GI50: 2070 nM
  TGI: 5040 nM
OVCAR-3 ovarian
  GI50: 1830 nM
  TGI: 3750 nM
OVCAR-4 ovarian
  GI50: 1670 nM
  TGI: 3190 nM
OVCAR-5 ovarian
  GI50: 3030 nM
  TGI: 10000 nM
OVCAR-8 ovarian
  GI50: 1870 nM
  TGI: 3670 nM
PC-3 prostate
  GI50: 1720 nM
  TGI: 3370 nM
RPMI-8226 leukemia
  GI50: 1990 nM
  TGI: 4520 nM
RXF 393 renal
  GI50: 1460 nM
  TGI: 2870 nM
SF-268 CNS
  GI50: 1860 nM
  TGI: 3960 nM
SF-295 CNS
  GI50: 1880 nM
  TGI: 3520 nM
SF-539 CNS
  GI50: 1820 nM
  TGI: 3240 nM
SK-MEL-2 melanoma
  GI50: 1730 nM
  TGI: 3220 nM
SK-MEL-28 melanoma
  GI50: 1650 nM
  TGI: 3090 nM
SK-MEL-5 melanoma
  GI50: 2070 nM
  TGI: 4380 nM
SK-OV-3 ovarian
  GI50: 1800 nM
  TGI: 3360 nM
SN12C renal
  GI50: 1750 nM
  TGI: 3470 nM
SNB-19 CNS
  GI50: 1880 nM
  TGI: 3880 nM
SNB-75 CNS
  GI50: 1510 nM
  TGI: 2890 nM
SR leukemia
  GI50: 1240 nM
  TGI: 4570 nM
SW-620 colon
  GI50: 1630 nM
  TGI: 3540 nM
T-47D breast
  GI50: 1830 nM
  TGI: 3830 nM
TK-10 renal
  GI50: 1850 nM
  TGI: 3360 nM
U251 CNS
  GI50: 1590 nM
  TGI: 2990 nM
UACC-257 melanoma
  GI50: 1700 nM
  TGI: 3110 nM
UACC-62 melanoma
  GI50: 1740 nM
  TGI: 3240 nM
UO-31 renal
  GI50: 1640 nM
  TGI: 3030 nM
